Publication PMC11714206, “Massively Parallel Screening of Toll/Interleukin‐1 Receptor (TIR)‐Derived Peptides Reveals Multiple Toll‐Like Receptors (TLRs)‐Targeting Immunomodulatory Peptides” (Advanced Science, 2024)

Molecular target: T1, MyD88^TIR (Homo sapiens, UniProt Q99836)
T1 construct: MyD88 (residues 148–296); 6xHis; made in house; host or cells: E. coli BL21 (DE3)
Assay: T‐Surf phage library (P8 and P3) selection against MyD88^TIR, four rounds, NGS read counts
Type: binding
Conditions: for P8_MyD88 Rank (after) / P8_MyD88 Rank (before): P8 library; for Population: P8_MyD88 pool: P8 T-Surf phage library, 4th round of selection against MyD88 TIR, share of NGS reads
Protocol: T‐Surf libraries were screened against the immobilized TIR domains of two major human TLR adaptor proteins, MAL^TIR and MyD88^TIR, allowing cross‐species selection of TIR‐binding motifs with 190 946 TIR‐derived peptides in a single binding assay (Scheme 1). Enriched phage pools from the fourth round of selection were analyzed using NGS after barcoding the peptide‐coding regions of the phage pools.
Phage display screening was performed by coating two wells of a 96‐well plate (Maxisorp, Thermo Fisher Scientific) with 100 µL of 5 µg mL^−1 TIR domains overnight; then, the coated wells were blocked with 200 µL of blocking buffer (0.2% BSA in PBS) and set aside for 1 h at 4 °C with gentle shaking. Next, 100 µL of the phage library was added to the wells and incubated for 1 h at room temperature (RT; 20 – 22 °C) with gentle shaking. The plate was washed four times with PBS containing 0.5% Tween‐20; the bound phages were eluted by adding 100 µL of 100 mM HCl to each well. The elute was neutralized with 10 µL of 1.0 M Tris‐HCl (pH 11.0). E. coli TG1 cells were grown to the log phase (A600 = ≈0.6), and 1 mL of the culture was incubated with 100 µL of the eluted phages for 30 min at 37 °C, with shaking at 200 rpm. Next, 1 µL of M13KO7 helper phages was added, followed by incubation for 45 min at 37 °C, with shaking. Subsequently, the cells were transferred to 25 mL of 2× yeast extract tryptone/carbenicillin/kanamycin medium and incubated overnight at 37 °C with shaking at 200 rpm. The amplified phages were precipitated with 20% PEG‐8000/2.5 M NaCl to be used for the next round of selection.
The naïve T‐Surf libraries in P8 and P3 and the enriched phage pools after four rounds were barcoded for NGS as previously described.^[ [59] ^] Briefly, 5 µL of the phage pool was used as a template for 20 cycles of a 50 µL PCR reaction using […] each of forward and reverse barcoded primers and PrimeSTAR Max DNA Polymerase. The PCR products were purified using Expin Gel SV (GeneAll). The NGS samples were quantified using qPCR, following the qPCR Quantification Protocol Guide (KAPA Library Quantification kits for Illumina Sequencing Platform), and qualified using the TapeStation High Sensitivity D1000 ScreenTape (Agilent Technologies). The indexed libraries were further sequenced by Macrogen (Seoul, Republic of Korea) using the NovaSeq platform (Illumina) with 100 bp paired‐end reads. The reads were demultiplexed by barcodes and filtered for an average Phred quality score of at least 30, followed by trimming the flanking consensus sequences using Cutadapt (version 2.3). Peptide sequence populations were analyzed according to the read counts.

[1] = selection against MyD88, rank by count after grouping
[2] = selection against MyD88, rank by count before grouping
[3] = selection against MyD88 TIR, rank by count after grouping
[4] = selection against MyD88 TIR, rank by count before grouping
[5] = P8_MyD88: rank by count after grouping
[6] = P8_MyD88: rank by count before grouping
[7] = selection against MyD88, rank after grouping
[8] = selection against MyD88, rank before grouping
[9] = P8_MyD88: rank by NGS read count after grouping
[10] = P8_MyD88: rank by NGS read count before grouping
[11] = 4R selection against MyD88, rank after grouping
[12] = 4R selection against MyD88, rank before grouping

T1 sequence (Q99836 148-296): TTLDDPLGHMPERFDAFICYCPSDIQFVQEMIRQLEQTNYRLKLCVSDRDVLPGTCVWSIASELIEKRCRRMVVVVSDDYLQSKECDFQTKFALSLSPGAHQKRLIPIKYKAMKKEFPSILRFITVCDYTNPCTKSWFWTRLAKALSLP

DLLVLEWFYERVFSQM
P8_MyD88 Rank (after) [1]: 713
P8_MyD88 Rank (before) [2]: 2590

DLQDLDWFYERLVSLL
P8_MyD88 Rank (after) [3]: 206
P8_MyD88 Rank (before) [4]: 2595

DLQDVGWFLSKLSQHI
Rank (after) [5]: 172
Rank (before) [6]: 203

DLVCDYLLPNLEGAAG
P8_MyD88 Rank (after) [7]: 537
P8_MyD88 Rank (before) [8]: 2385

DLVWDYLLPNLAGPAG
Rank (after) [9]: 967
Rank (before) [10]: 2386

DLVWDYLLPNLEGPAG
Population: 0.00886%

DLYDILYLYGRHTIFV
Rank (after) [9]: 881
Rank (before) [10]: 2584

DMQDIEWFYVKLIVSI
P8_MyD88 Rank (after) [1]: 754
P8_MyD88 Rank (before) [2]: 3064

DPHDLDWFYERLVSLL
Rank (after) [5]: 143
Rank (before) [6]: 1072

DPHDLEWVYERLVSLF
Rank (after) [9]: 913
Rank (before) [10]: 2603

DPHDLQWLYERLVSLI
Rank (after) [9]: 985
Rank (before) [10]: 2634

DPHDLVWFYERLVSLF
P8_MyD88 Rank (after) [3]: 230
P8_MyD88 Rank (before) [4]: 2631

DPHDPQWFYERLVRLI
P8_MyD88 Rank (after) [7]: 495
P8_MyD88 Rank (before) [8]: 3035

DPHGLEWIYERLVSLF
Rank (after) [9]: 923
Rank (before) [10]: 2629

DPHQHQAFWDRLWEKL
P8_MyD88 Rank (after) [3]: 286
P8_MyD88 Rank (before) [4]: 560

DPKALQWFYERLVSLI
P8_MyD88 Rank (after) [7]: 562
P8_MyD88 Rank (before) [8]: 3042

DPKDLQWFYERLVSLF
Rank (after) [9]: 1027
Rank (before) [10]: 3043

DPLALEWYYERPFSQM
P8_MyD88 Rank (after) [7]: 559
P8_MyD88 Rank (before) [8]: 2612

DPLGQVRLSFRLFRQI
P8_MyD88 Rank (after) [1]: 748
P8_MyD88 Rank (before) [2]: 2610

DPLHLDWHYERLVSTD
P8_MyD88 Rank (after) [1]: 680
P8_MyD88 Rank (before) [2]: 2615

DPLVMVWLYVRPVSLF
P8_MyD88 Rank (after) [7]: 556
P8_MyD88 Rank (before) [8]: 2609

DPMVAEWVLNHLRFEL
P8_MyD88 Rank (after) [3]: 193
P8_MyD88 Rank (before) [4]: 246

DPPDLDWCYQRLVNLP
Rank (after) [9]: 1026
Rank (before) [10]: 2628

DPPELDWFYERLFSLF
Rank (after) [9]: 971
Rank (before) [10]: 2627

DPPLLHGLYERLVILF
P8_MyD88 Rank (after) [7]: 485
P8_MyD88 Rank (before) [8]: 2602

DPPVLEWFYESLFSQM
P8_MyD88 Rank (after) [11]: 601
P8_MyD88 Rank (before) [12]: 2624

DPQALAWFYERLVSLF
P8_MyD88 Rank (after) [3]: 256
P8_MyD88 Rank (before) [4]: 2682

DPQALDWFYERLVRLF
P8_MyD88 Rank (after) [3]: 279
P8_MyD88 Rank (before) [4]: 2689

DPQALDWLYERLVSLF
P8_MyD88 Rank (after) [3]: 203
P8_MyD88 Rank (before) [4]: 2685

DPQARDCFYERLVSLF
Rank (after) [5]: 476
Rank (before) [6]: 2687

DPQDEDWLYERLGGLF
P8_MyD88 Rank (after) [1]: 712
P8_MyD88 Rank (before) [2]: 2696

DPQDHYLLYERLVSLF
Rank (after) [9]: 934
Rank (before) [10]: 2964

DPQDLALFYERLVSLF
P8_MyD88 Rank (after) [3]: 251
P8_MyD88 Rank (before) [4]: 2727

DPQDLARSYERLVRLF
P8_MyD88 Rank (after) [11]: 610
P8_MyD88 Rank (before) [12]: 2690

DPQDLAWFSERLVSQF
P8_MyD88 Rank (after) [7]: 551
P8_MyD88 Rank (before) [8]: 2728

DPQDLAWFYASQSSQM
P8_MyD88 Rank (after) [7]: 500
P8_MyD88 Rank (before) [8]: 2997

DPQDLAWFYERLVSLF
Population: 0.00617%

DPQDLAWSYERLVSLF
P8_MyD88 Rank (after) [3]: 255
P8_MyD88 Rank (before) [4]: 2732

DPQDLAWVYERLVSPV
P8_MyD88 Rank (after) [11]: 628
P8_MyD88 Rank (before) [12]: 2733

DPQDLDCFDERLGSRV
P8_MyD88 Rank (after) [11]: 627
P8_MyD88 Rank (before) [12]: 2697

DPQDLDCFYERLVNLF
Rank (after) [5]: 408
Rank (before) [6]: 2740

DPQDLDCFYERLVSLL
Rank (after) [5]: 169
Rank (before) [6]: 1082

DPQDLDCYYERLVSLF
Rank (after) [9]: 1004
Rank (before) [10]: 2741

DPQDLDGCYERLVSLF
Rank (after) [5]: 393
Rank (before) [6]: 2837

DPQDLDLFYERLVRLF
P8_MyD88 Rank (after) [3]: 261
P8_MyD88 Rank (before) [4]: 2737

DPQDLDLFYERLVSMF
P8_MyD88 Rank (after) [11]: 673
P8_MyD88 Rank (before) [12]: 2739
